Data set [1] has as its target T1, dopamine autoreceptor (D2 Quin.) (Rattus norvegicus, UniProt P61169).
T1 construct: from tissue; host or cells: rat striatal brain tissue homogenate
The experiment in a line: Affinity for the dopamine autoreceptor, [3H]-quinpirole binding in homogenized rat striatal brain tissue. On the procedure: Affinity for the dopamine autoreceptor was established by a modification of the standard experimental test procedure of Seemen and Schaus, European Journal of Pharmacology 203: 105-109, 1991, wherein homogenized rat striatal brain tissue is incubated with [^3H]-quinpirole (Quin.) at various concentrations of test compound, filtered, washed and counted in a Betaplate scintillation counter.

Data set [2] deals with dopamine D2 receptor. The data set can be described thus: Affinity for the dopamine D2 receptor, [3H]-spiperidone binding in homogenized limbic brain tissue. The note with it: ratio of IC50 D2 Spiper to IC50 D2 Quin. (LowAg/HighAg). On the procedure:
High affinity for the dopamine D2 receptor was established by the standard experimental test procedure of Fields, et al., Brain Res., 136, […] (1977) and Yamamura et al., ed., Neurotransmitter Receptor Binding, Chapter 9, page 171, Raven Press, N.Y. (1978) wherein homogenized limbic brain tissue is incubated with [^3H]-spiperidone at various concentrations of test compound, filtered washed, and shaken with Hydrofluor scintillation cocktail (National Diagnostics) and counted in a Packard 460 CD scintillation counter.

SMILES strings stand for the structures. Counter-ions that a name gives are not always drawn.

T1 sequence (P61169 whole entry): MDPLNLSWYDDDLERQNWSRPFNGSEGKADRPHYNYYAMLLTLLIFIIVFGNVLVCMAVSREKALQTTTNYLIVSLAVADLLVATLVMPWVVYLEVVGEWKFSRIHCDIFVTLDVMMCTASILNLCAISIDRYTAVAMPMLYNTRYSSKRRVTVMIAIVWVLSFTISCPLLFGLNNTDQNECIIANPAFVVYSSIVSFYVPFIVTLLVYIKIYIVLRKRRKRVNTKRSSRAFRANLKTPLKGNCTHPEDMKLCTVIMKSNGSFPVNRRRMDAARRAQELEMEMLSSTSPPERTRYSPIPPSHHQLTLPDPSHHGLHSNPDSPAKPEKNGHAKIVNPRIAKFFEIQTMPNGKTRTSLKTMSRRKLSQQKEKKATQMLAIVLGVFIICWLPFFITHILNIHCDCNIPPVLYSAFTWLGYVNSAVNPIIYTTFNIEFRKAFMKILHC

`O=c1[nH]c2ccc3c(c2[nH]1)OC(CNCc1ccccc1)CC3` (stereo not drawn) [Example 1, 8-(Benzylamino-methyl)-3,5,7,8-tetrahydro-9-oxa-1,3-diaza-cyclopenta[a]naphthalen-2-one]: the IC50 in data set [1] is 0.29 nM. The Ratio in data set [2] is 309.
`O=c1[nH]c2c([nH]1)=C1OC(CNCc3ccccc3)CC=C1CC=2` (stereo not drawn) (as salt: oxalate) [Example 1, 8-(Benzylamino-methyl)-3,5,7,8-tetrahydro-9-oxa-1,3-diaza-cyclopenta[a]naphthalen-2-one]: the melting point is 229 °C.

A word on the IC50: it is the point on the concentration scale where inhibition reaches its midpoint. A high value points to lower potency. Broadly, the melting point is the temperature of the solid-liquid transition.

Values taken from US6541501B2, “2-(aminomethyl)-tetrahydro-9-oxa-1,3-diaza-cyclopenta[a]-naphthalenyl derivatives with antipsychotic activity” (Wyeth, priority 2001, dated 2003).
